Residue numbers refer to the chain shown, from its start. Where “and” joins values, the source holds several entries; their conditions need not be identical. Equal values may be shown once. Where a SMILES comes first, the peptide text is derived from it.
Experiments:
[1] = biological target: Wnt-responsive promoter (TCF/LEF); test: Wnt-dependent luciferase reporter assay; type: cell-based, murine
Summary of the method: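 Murine 3T3 fibroblasts carrying a TCF/LEF-driven luciferase reporter, stimulated with Wnt3a in the presence of increasing peptide concentrations or vehicle. Luminescence inhibition gave EC50 values in uM.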

[2] = system: colon cancer cell line (SW480); type: cell-based
Experimental: (§1) Peptides inhibiting β-catenin cause decreased cell viability in a colon cancer cell line (SW480) and endometriosis lesions excised from a disease animal model. Peptides from libraries described herein are characterized in their effect on cell viability, as measured using a luminescent cell viability assay (Cell Titer-Glo®, Promega, Madison, WI) and expressed as IC50 in Table 5. Peptide inhibitors were tested for their ability to inhibit cellular proliferation across 2 different β-catenin expressing pathogenic cell lines: a colon cancer cell line (SW480) and/or mouse EMS lesion cells derived from mouse model of disease. Both cells lines are naturally known to express high levels of β-catenin. Cell lines were incubated with varying concentrations of peptide concentration and assessed for viability after day 5 and 7 days. The CellTiter-Glo® Luminescent Cell Viability Assay (Promega) is used to detect viable cells. IC50 values are graphed and calculated using Prism software (GraphPad) based on the cell viability readouts. IC50 is used to assess inhibition of cell proliferation by peptide concentration and is used to calculate the inhibitory effect of each peptide across each line. The results are used to assess the therapeutic potency of the peptides. In the SW480 cell line, peptide inhibitors from Family 1 (SEQ ID NO:264) and Family 2 (SEQ ID NO:396) were added daily to the cell growth medium. After 7 days, cell viability was assessed with the Cell-Titer Glo kit (Promega, Madison, WI). […] IC50 was calculated for peptides based on the concentration at which 50% viability was observed (Table 5).

[3] = system: mouse EMS lesion cells; type: cell-based
Experimental: as §1

[4] = system: EMS lesions; settings: 5 mg/kg IP daily for three weeks, versus vehicle
Excerpt: Lesions were established in an EMS mouse model of endometriosis by intraperitoneal injection of minced GFP+ uterine tissue from a mouse into wild-type c57/b16 mice. […] Endometrial disease was established in the mice and allowed to progress for three weeks prior to the initiation of therapy.

[5] = biological target: T1, β-catenin (Mus musculus, UniProt Q02248); test: Immunohistochemistry of β-catenin localization in lesions, area thresholding; type: in vivo; settings: IP daily for 3 weeks
T1 construct: from tissue; host or cells: endometriosis lesions of the mouse model
T1 sequence (Q02248 1-781): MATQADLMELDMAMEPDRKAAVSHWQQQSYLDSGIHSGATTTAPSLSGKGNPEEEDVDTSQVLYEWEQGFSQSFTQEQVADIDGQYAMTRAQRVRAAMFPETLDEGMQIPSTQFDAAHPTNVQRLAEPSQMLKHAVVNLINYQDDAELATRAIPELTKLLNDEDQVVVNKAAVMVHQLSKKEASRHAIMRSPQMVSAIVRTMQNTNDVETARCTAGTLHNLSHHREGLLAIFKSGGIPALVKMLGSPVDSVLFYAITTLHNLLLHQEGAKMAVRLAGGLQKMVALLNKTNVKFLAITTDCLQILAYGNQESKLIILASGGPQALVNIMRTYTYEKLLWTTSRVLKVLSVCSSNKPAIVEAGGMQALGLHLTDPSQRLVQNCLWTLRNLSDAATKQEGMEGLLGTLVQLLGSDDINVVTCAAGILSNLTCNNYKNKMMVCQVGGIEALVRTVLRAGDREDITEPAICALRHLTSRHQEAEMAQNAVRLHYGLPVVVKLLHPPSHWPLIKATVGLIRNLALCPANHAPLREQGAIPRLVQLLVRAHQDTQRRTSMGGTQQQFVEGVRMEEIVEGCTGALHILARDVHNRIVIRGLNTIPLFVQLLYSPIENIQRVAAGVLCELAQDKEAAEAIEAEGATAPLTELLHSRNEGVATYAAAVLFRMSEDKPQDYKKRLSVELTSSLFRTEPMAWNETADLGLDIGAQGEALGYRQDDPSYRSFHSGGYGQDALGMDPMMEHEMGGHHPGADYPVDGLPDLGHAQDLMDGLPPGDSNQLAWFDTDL
Experimental: Endometriosis was established in a mouse model of disease. Mice were allowed to establish endometriosis for 3 weeks. After the first 3 weeks, mice were then intraperitoneally treated daily for 3 weeks with the therapeutic peptides corresponding to SEQ ID NOs: 215 or 393 or untreated negative control. To assess the localization of the peptides and β-catenin, lesions from the endometriosis mouse model were assessed. On the last day of treatment, in order to visualize the peptide localization to the lesion(s), mice were dosed with a biotinylated tagged peptide therapeutic or control. Mice were euthanized, lesions were removed, and fixed in formalin for histology and immunohistochemistry. Fixed and sectioned lesions were incubated with antibodies specific for β-catenin (Cell Signaling, 1:100, Secondary: Fisher Scientific, Goat anti-Rabbit-647 1:200), streptavidin for biotinylated-therapeutic (Fisher Scientific, SA-405 1:100), and Sytox green for nucleus (Fisher Scientific, 1:300). Immunohistochemical negative controls were performed on lesion sections from all treatment groups using IgG non-specific antibodies (Rabbit-IgG, AbCam 1:100).
Quantification of β-catenin localization was performed using the Zeiss Blue Software via thresholding. Thresholding allows the software to calculate the area of staining using pixel intensity; therefore, a quantitative number for staining can be extrapolated for the different cellular compartments (See Table 6).

[6] = biological target: T2, β-catenin (Homo sapiens, UniProt P35222); test: KD50 measurement using competitive fluorescence polarization (FP) with labelled TCF4; type: binding; settings: fluorescence polarization, β-catenin; for Kd: read-out: β-Cat FP KD
T2 sequence (P35222 1-781): T1 sequence (Q02248 1-781) with A706P
Summary of the method: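 Competitive FP in which unlabelled inhibitor (10 nM to 30 uM dilution series) displaces 5 nM labelled TCF4 from 100 nM β-catenin, room temperature. Read-out ex 470 nm, em 520 nm; experiment repeated three times.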

[7] = system: non-Wnt responsive cells
[8] = system: EMS lesion; settings: across the subtypes of EMS; cited from earlier work

Row | EC50 [1] | β-Cat FP Hill slope [6] | Kd [6] | Compound | % Viability non-Wnt responsive cells [7] | EMS lesion progression [8] | also measured
1 | 7.5 to 15 µM |  |  | CCCCCCCCCCCCCCCC(=O)N[C@@H](Cc1c[nH]c2ccccc12)C(=O)N(C)[C@@H](Cc1c[nH]c2ccccc12)C(=O)N[C@@H](CCC(=O)O)C(=O)NC(C)(CO)C(=O)N[C@H](C(=O)N[C@@H](CC(C)C)C(=O)N[C@@H](CC(=O)O)C(=O)N[C@@H](CCC(=O)O)C(=O)N[C@@H](Cc1c[nH]cn1)C(=O)NC(C)(C(=O)N[C@@H](CCC(N)=O)C(=O)N[C@@H](CCCNC(=N)N)C(=O)N[C@H](C(=O)N[C@@H](Cc1c[nH]c2ccccc12)C(=O)NCC(=O)O)C(C)C)C(C)C)[C@@H](C)CC (single isomer, unassigned) [compound 396] |  |  | IC50 [2]: 2.9 µM; IC50 [3]: 15 µM
2 |  |  |  | CCCC[C@@H]1NC(=O)[C@@H](NC(C)=O)CCCCNC(=O)C[C@@H](C(=O)O)NC(=O)[C@H](Cc2c[nH]c3ccccc23)NC(=O)[C@H](C)NC(=O)[C@H](CC)NC(=O)[C@H]([C@@H](C)CC)NC(=O)[C@H](CC(C)C)NC(=O)[C@H](CC2CCCCC2)NC(=O)[C@H](Cc2c[nH]c3ccccc23)NC1=O [SEQ ID NO: 215, Cyclo-Ac-K*Nle-W-Cha-LI-Abu-AWD*-COOH] (HELM PEPTIDE1{[ac].K.[Nle].W.[Cha].L.I.[Abu].A.W.D}$PEPTIDE1,PEPTIDE1,2:R3-11:R3$$$V2.0) |  |  | Activated macrophages [4]: relative increase; Relative numbers of activated macrophages, foam cells, polymorphonuclear neutrophils, B cells and T cells at the site of lesions (histology) [4]: increase in the relative numbers; % membrane bound β-catenin (staining area threshold), Average ([5]; average of lesion samples): 46.4%; % nuclear β-catenin (staining area threshold), Average ([5]; average of lesion samples): 1.0%; % nuclear β-catenin (staining area threshold) ([5]; single lesion sample, listed as Peptide 2): 0.8% and 1.2% and 1.1%; β-Cat FP Hill slope ([6]; listed as 2): 0.82
3 | < 7.5 µM | 0.96 | < 0.4 µM | CC[C@H](C)[C@H](NC(=O)[C@H](CC(C)C)NC(=O)[C@H](Cc1ccccc1)NC(=O)[C@H](Cc1c[nH]c2ccccc12)NC(=O)[C@@H](N)CCSC)C(=O)N[C@@H](CS)C(=O)N[C@@H](Cc1ccccc1)C(=O)N[C@@H](Cc1c[nH]c2ccccc12)C(=O)NCC(=O)O [compound 42] (H-MWFLICFWG-OH) | 108.69% |  | 
4 | < 7.5 µM | 0.92 | 0.4 to 1 µM | CC[C@H](C)[C@H](NC(=O)[C@H](CC(C)C)NC(=O)[C@@H](NC(=O)[C@H](Cc1c[nH]c2ccccc12)NC(=O)[C@@H](N)CCSC)[C@@H](C)CC)C(=O)N[C@@H](CO)C(=O)N[C@@H](Cc1ccccc1)C(=O)N[C@@H](Cc1c[nH]c2ccccc12)C(=O)NCC(=O)O [compound 43] (H-MWILISFWG-OH) | 98.97% |  | 
5 | > 30 µM | 1.15 |  | CC[C@H](C)[C@@H]1NC(=O)[C@H](CC(C)C)NC(=O)[C@H](Cc2ccccc2)NC(=O)[C@H](Cc2c[nH]c3ccccc23)NC(=O)[C@@H](N)CCCCNC(=O)CC[C@@H](C(=O)N[C@@H](Cc2c[nH]c3ccccc23)C(=O)NCC(=O)O)NC(=O)[C@H](CS)NC1=O [compound 181] (HELM PEPTIDE1{K.W.F.L.I.C.E.W.G}$PEPTIDE1,PEPTIDE1,1:R3-7:R3$$$V2.0) | 89.16% |  | 
6 | 7.5 to 15 µM | 3 | 0.4 to 1 µM | CC[C@@H]1NC(=O)[C@H]([C@@H](C)CC)NC(=O)[C@H](CC(C)C)NC(=O)[C@H](CC2CCCCC2)NC(=O)[C@H](Cc2c[nH]c3ccccc23)NC(=O)[C@@H](NC(C)=O)CCCCNC(=O)C[C@@H](C(=O)O)NC(=O)[C@H](Cc2c[nH]c3ccccc23)NC(=O)[C@H](C)NC1=O [compound 261] (HELM PEPTIDE1{[ac].K.W.[Cha].L.I.[Abu].A.W.D}$PEPTIDE1,PEPTIDE1,2:R3-10:R3$$$V2.0) |  |  | IC50 [2]: 4 µM; IC50 [3]: 7.7 µM
7 |  |  |  | O=C(Nc1ccc([N+](=O)[O-])cc1Cl)c1cc(Cl)ccc1O [niclosamide] |  | successfully reversed | 
8 |  |  |  | CGP049090 |  | successfully reversed | 
9 |  |  |  | PKF 115-584 |  | successfully reversed | 
